Experimental data published in patent EP2100894A1, “Pyridopyrimidines used as Plk1 (polo-like kinase) inhibitors” (4SC AG, priority 2008, dated 2009).

Biological target: T1, PIk1 (Homo sapiens, UniProt P53350)
T1 construct: His tag (histidine tag) (N); made in house; host or cells: SF9 insect cells
Assay: PIk1 kinase activity inhibition assay (33P incorporation into alpha casein, flash plates)
Type: biochemical
Conditions: recombinant N-terminally histidine-tagged PIk1, alpha casein as substrate, 100 nM Li-ATP, 80 minutes at 30°C
Description: The inhibition of PIk1 kinase activity can be measured using recombinant PIk1 protein expressed as an N-terminally histidine-tagged protein in SF9 insect cells and alpha casein as substrate. The PIk1 assay is run in 96 well plates by incubating 50 to 100 ng per well recombinant PIk1, 500 ng per well alpha casein (Sigma, # C-6780) as substrate, 10 µl of compound of invention (test compounds were dissolved as 20 mM solutions in dimethylsulfoxide (DMSO) and subsequently diluted), and 100 nM Li-ATP (including ^33P-ATP) in 100 µl of reaction buffer ([…], pH 7.5; 3 mM MgCl2; 3 mM MnCl2; 3 µM Na-Orthovanadat; 1 mM DTT; 1 µg/ml PEG 8000) for 80 minutes at 30°C. The reactions are terminated by adding 100 µl stopping buffer (2% H3PO4 for 5 minutes) and are washed 3 times with washing solution (0,9% NaCl). Determining ^33P incorporated into the protein substrate alpha casein, the detection is based on the adhesion of the phosphorylated protein to the surface of scintillator-coated flash plates (Perkin Elmer, USA; # SMP-200). Phosphorylation of alpha casein is measured by counting the radioactivity bound to the plate for 60 sec. using a plate reader (Perkin Elmer, USA; Wallac Microbeta). By this method, the IC50 value of the PIk1 inhibition is determined as described above. […]

T1 sequence (P53350 whole entry): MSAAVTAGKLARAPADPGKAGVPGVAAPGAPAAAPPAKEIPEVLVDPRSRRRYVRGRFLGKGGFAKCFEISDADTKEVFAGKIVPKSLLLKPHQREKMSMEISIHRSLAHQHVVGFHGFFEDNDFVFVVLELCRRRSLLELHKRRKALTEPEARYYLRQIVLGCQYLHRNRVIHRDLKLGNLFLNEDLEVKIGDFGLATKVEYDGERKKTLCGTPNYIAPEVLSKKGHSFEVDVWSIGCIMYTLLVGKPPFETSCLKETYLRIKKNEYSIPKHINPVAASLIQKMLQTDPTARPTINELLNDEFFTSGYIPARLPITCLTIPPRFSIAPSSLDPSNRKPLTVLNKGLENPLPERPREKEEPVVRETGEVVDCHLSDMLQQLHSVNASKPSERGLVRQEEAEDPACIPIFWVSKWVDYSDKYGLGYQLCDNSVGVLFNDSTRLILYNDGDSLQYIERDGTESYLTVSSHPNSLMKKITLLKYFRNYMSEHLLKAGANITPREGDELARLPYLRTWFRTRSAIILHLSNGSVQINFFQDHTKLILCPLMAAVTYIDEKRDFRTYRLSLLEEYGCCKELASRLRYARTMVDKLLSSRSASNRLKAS

Row | Structure (SMILES) | IC50 [nM]
1 | C/C=C/c1c(OCC2CC2)c(=O)n(C)c2cnc(Nc3ccc(C(=O)NC4CCN(C)CC4)cc3OC)nc12 [Example 27, 4-({7-(cyclopropylmethoxy)-5-methyl-6-oxo-8-[(1E)-prop-1-en-1-yl]-5,6-dihydropyrido[3,2-d]pyrimidin-2-yl}amino)-3-methoxy-N-(1-methylpiperidin-4-yl)benzamide] | < 100
2 | CCOc1c(-c2ccsc2)c2nc(Nc3ccc(C(=O)NC4CCN(C)CC4)cc3OC)ncc2n(C)c1=O [Example 30, 4-{[7-ethoxy-5-methyl-6-oxo-8-(3-thienyl)-5,6-dihydropyrido[3,2-d]pyri-midin-2-yl]amino}-3-methoxy-N-(1-methylpiperidin-4-yl)benzamide] | < 10
3 | COc1cc(C(=O)NC2CCN(C)CC2)ccc1Nc1ncc2c(n1)c(-c1cscc1C)c(OC)c(=O)n2C [Example 33, 3-methoxy-4-{[7-methoxy-5-methyl-8-(4-methyl-3-thienyl)-6-oxo-5,6-dihydropyrido[3,2-d]pyrimidin-2-yl]amino}-N-(1-methylpiperidin-4-yl)benzamide] | < 1000
4 | COc1cc(C(=O)NC2CCN(C)CC2)ccc1Nc1ncc2c(n1)c(-c1cncnc1)c(OC)c(=O)n2C [Example 34, 3-methoxy-4-[(7-methoxy-5-methyl-6-oxo-8-pyrimidin-5-yl-5,6-dihydro-pyrido[3,2-d]pyrimidin-2-yl)amino]-N-(1-methylpiperidin-4-yl)benzamide] | < 1000
5 | CCC(C)Oc1c(-c2ccsc2)c2nc(Nc3ccc(C(=O)NC4CCN(C)CC4)cc3OC)ncc2n(C)c1=O (stereo not shown) [Example 36, 4-{[7-sec-butoxy-5-methyl-6-oxo-8-(3-thienyl)-5,6-dihydropyrido[3,2-d]pyrimidin-2-yl]amino}-3-methoxy-N-(1-methylpiperidin-4-yl)benzamide] | < 100
6 | C/C=C/c1c(OC(C)CC)c(=O)n(C)c2cnc(Nc3ccc(C(=O)NC4CCN(C)CC4)cc3OC)nc12 (stereo not shown) [Example 40, 4-({7-sec-butoxy-5-methyl-6-oxo-8-[(1E)-prop-1-en-1-yl]-5,6-dihydro-pyrido[3,2-d]pyrimidin-2-yl}amino)-3-methoxy-N-(1-methylpiperidin-4-yl)benzamide] | < 100
7 | C/C=C/c1c(OCC(C)C)c(=O)n(C)c2cnc(Nc3ccc(C(=O)NC4CCN(C)CC4)cc3OC)nc12 [Example 41, 4-({7-isobutoxy-5-methyl-6-oxo-8-[(1E)-prop-1-en-1-yl]-5,6-dihydro-pyrido[3,2-d]pyrimidin-2-yl}amino)-3-methoxy-N-(1-methylpiperidin-4-yl)benzamide] | < 10
8 | C#Cc1c(OC)c(=O)n(C)c2cnc(Nc3ccc(C(=O)NC4CCN(C)CC4)cc3OC)nc12 [Example 46, 4-[(8-ethynyl-7-methoxy-5-methyl-6-oxo-5,6-dihydropyrido[3,2-d]pyri-midin-2-yl)amino]-3-methoxy-N-(1-methylpiperidin-4-yl)benzamide] | < 100
9 | COc1cc(C(=O)NCCC2CCCN2C)ccc1Nc1ncc2c(n1)c(-c1ccsc1)c(OCC1CC1)c(=O)n2C (stereo not shown) [Example 47, 4-{[7-(cyclopropylmethoxy)-5-methyl-6-oxo-8-(3-thienyl)-5,6-dihydropyrido[3,2-d]pyrimidin-2-yl]amino}-3-methoxy-N-[2-(1-methylpyrrolidin-2-yl)ethyl]benzamide] | < 10
10 | COc1cc(C(=O)NCC2CCN(C)CC2)ccc1Nc1ncc2c(n1)c(-c1ccsc1)c(OCC1CC1)c(=O)n2C [Example 48, 4-{[7-(cyclopropylmethoxy)-5-methyl-6-oxo-8-(3-thienyl)-5,6-dihydro-pyrido[3,2-d]pyrimidin-2-yl]amino}-3-methoxy-N-[(1-methylpiperidin-4-yl)methyl] benzamide] | < 10
11 | COc1cc(C(=O)NC2CCN(C)CC2)ccc1Nc1ncc2c(n1)c(-c1ccccc1)c(OCC1CC1)c(=O)n2C [Example 51, 4-{[7-(cyclopropylmethoxy)-5-methyl-6-oxo-8-phenyl-5,6-dihydro-pyrido[3,2-d]pyrimidin-2-yl]amino}-3-methoxy-N-(1-methylpiperidin-4-yl)benzamide] | < 10

More lines, now with the values ahead:

Row | IC50 [nM] | Structure (SMILES)
12 | < 1000 | C/C=C/c1c(OC)c(=O)n(C)c2cnc(Nc3ccc(C(=O)Nc4cccnc4)cc3OC)nc12 [Example 28, 3-methoxy-4-({7-methoxy-5-methyl-6-oxo-8-[(1E)-prop-1-en-1-yl]-5,6-dihydropyrido[3,2-d]pyrimidin-2-yl}amino)-N-pyridin-3-ylbenzamide]
13 | < 100 | C/C=C/c1c(OC)c(=O)n(C)c2cnc(Nc3ccc(C(=O)N[C@@H](C)Cc4c[nH]cn4)cc3OC)nc12 [Example 29, N-[(1S)-2-(1H-imidazol-4-yl)-1-methylethyl]-3-methoxy-4-({7-methoxy-5-methyl-6-oxo-8-[(1E)-prop-1-en-1-yl]-5,6-dihydropyrido[3,2-d]pyrimidin-2-yl}amino)benzamide]
14 | < 100 | COc1cc(C(=O)NC2CCN(C)CC2)ccc1Nc1ncc2c(n1)c(-c1ccsc1)c(OC(C)C)c(=O)n2C [Example 31, 4-{[7-isopropoxy-5-methyl-6-oxo-8-(3-thienyl)-5,6-dihydropyrido[3,2-d]pyrimidin-2-yl]amino}-3-methoxy-N-(1-methylpiperidin-4-yl)benzamide]
15 | < 100 | COc1cc(C(=O)NC2CCN(C)CC2)ccc1Nc1ncc2c(n1)c(-c1ccsc1)c(OCC1CC1)c(=O)n2C [Example 32, 4-{[7-(cyclopropylmethoxy)-5-methyl-6-oxo-8-(3-thienyl)-5,6-dihydro-pyrido[3,2-d]pyrimidin-2-yl]amino}-3-methoxy-N-(1-methylpiperidin-4-yl)benzamide]
16 | < 1000 | COc1cc(C(=O)NC2CCN(C)CC2)ccc1Nc1ncc2c(n1)c(-c1cnn(C)c1)c(OC)c(=O)n2C [Example 35, 3-methoxy-4-{[7-methoxy-5-methyl-8-(1-methyl-1H-pyrazol-4-yl)-6-oxo-5,6-dihydropyrido[3,2-d]pyrimidin-2-yl]amino}-N-(1-methylpiperidin-4-yl)benzamide]
17 | < 100 | CCOc1c(C2CC2)c2nc(Nc3ccc(C(=O)NC4CCN(C)CC4)cc3OC)ncc2n(C)c1=O [Example 37, 4-[(8-cyclopropyl-7-ethoxy-5-methyl-6-oxo-5,6-dihydropyrido[3,2-d]pyrimidin-2-yl)amino]-3-methoxy-N-(1-methylpiperidin-4-yl)benzamide]
18 | < 10 | COc1cc(C(=O)NC2CCN(C)CC2)ccc1Nc1ncc2c(n1)c(C1CC1)c(OCC1CC1)c(=O)n2C [Example 38, 4-{[8-cyclopropyl-7-(cyclopropylmethoxy)-5-methyl-6-oxo-5,6-dihydro-pyrido[3,2-d]pyrimidin-2-yl]amino}-3-methoxy-N-(1-methylpiperidin-4-yl)benzamide]
19 | < 10 | COc1cc(C(=O)NC2CCN(C)CC2)ccc1Nc1ncc2c(n1)c(-c1ccoc1)c(OCC1CC1)c(=O)n2C [Example 39, 4-{[7-(cyclopropylmethoxy)-8-(3-furyl)-5-methyl-6-oxo-5,6-dihydro-pyrido[3,2-d]pyrimidin-2-yl]amino}-3-methoxy-N-(1-methylpiperidin-4-yl)benzamide]
20 | < 100 | C/C=C/c1c(OCC2CCCC2)c(=O)n(C)c2cnc(Nc3ccc(C(=O)NC4CCN(C)CC4)cc3OC)nc12 [Example 42, 4-({7-(cyclopentylmethoxy)-5-methyl-6-oxo-8-[(1E)-prop-1-en-1-yl]-5,6-dihydropyrido[3,2-d]pyrimidin-2-yl}amino)-3-methoxy-N-(1-methylpiperidin-4-yl)benzamide]
21 | < 10 | C/C=C/c1c(OC2CCC2)c(=O)n(C)c2cnc(Nc3ccc(C(=O)NC4CCN(C)CC4)cc3OC)nc12 [Example 43, 4-({7-(cyclobutyloxy)-5-methyl-6-oxo-8-[(1E)-prop-1-en-1-yl]-5,6-dihydropyrido[3,2-d]pyrimidin-2-yl}amino)-3-methoxy-N-(1-methylpiperidin-4-yl)benzamide]
22 | < 100 | CCOc1c(-c2ncco2)c2nc(Nc3ccc(C(=O)NC4CCN(C)CC4)cc3OC)ncc2n(C)c1=O [Example 44, 4-{[7-ethoxy-5-methyl-8-(1,3-oxazol-2-yl)-6-oxo-5,6-dihydropyrido[3,2-d]pyrimidin-2-yl]amino}-3-methoxy-N-(1-methylpiperidin-4-yl)benzamide]
23 | < 100 | C/C=C/c1c(OC(C)C2CC2)c(=O)n(C)c2cnc(Nc3ccc(C(=O)NC4CCN(C)CC4)cc3OC)nc12 (stereo not shown) [Example 45, 4-({7-(1-cyclopropylethoxy)-5-methyl-6-oxo-8-[(1E)-prop-1-en-1-yl]-5,6-dihydropyrido[3,2-d]pyrimidin-2-yl}amino)-3-methoxy-N-(1-methylpiperidin-4-yl)benzamide]
24 | < 10 | COc1cc(C(=O)NC2CCN(C(C)C)CC2)ccc1Nc1ncc2c(n1)c(-c1ccsc1)c(OCC1CC1)c(=O)n2C [Example 49, 4-{[7-(cyclopropylmethoxy)-5-methyl-6-oxo-8-(3-thienyl)-5,6-dihydropyrido[3,2-d]pyrimidin-2-yl]amino}-N-(1-isopropylpiperidin-4-yl)-3-methoxybenzamide]
25 | < 100 | CCOc1c(-c2nccs2)c2nc(Nc3ccc(C(=O)NC4CCN(C)CC4)cc3OC)ncc2n(C)c1=O [Example 50, 4-{[7-ethoxy-5-methyl-6-oxo-8-(1,3-thiazol-2-yl)-5,6-dihydropyrido[3,2-d]pyrimidin-2-yl]amino}-3-methoxy-N-(1-methylpiperidin-4-yl)benzamide]
